Molecular target: M. tuberculosis GpgS (glucosyl-3-phosphoglycerate synthase) (Mycobacterium tuberculosis, UniProt P9WMW9)
Sequence (P9WMW9 whole entry): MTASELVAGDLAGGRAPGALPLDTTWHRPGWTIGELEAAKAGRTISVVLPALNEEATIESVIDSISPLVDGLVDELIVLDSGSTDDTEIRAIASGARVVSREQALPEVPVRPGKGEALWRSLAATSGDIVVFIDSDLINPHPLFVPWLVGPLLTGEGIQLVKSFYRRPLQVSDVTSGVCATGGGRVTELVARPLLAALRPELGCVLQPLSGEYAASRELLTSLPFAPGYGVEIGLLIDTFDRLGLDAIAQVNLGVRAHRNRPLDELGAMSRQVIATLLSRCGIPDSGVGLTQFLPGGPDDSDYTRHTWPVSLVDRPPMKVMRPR

Question: O=C(O)[C@H](O)COP(=O)(O)O [3-phosphoglycerate] was tested. Which “X-ray crystal structure of ternary complex, 2.7 A (co-crystallization)” value did it give?
Answer: there is clear electron density for the carboxylate region of the bound 3-phosphoglycerate

Source: publication PMC2581804, “Mycobacterium tuberculosis Glucosyl-3-Phosphoglycerate Synthase: Structure of a Key Enzyme in Methylglucose Lipopolysaccharide Biosynthesis” (PLoS ONE, 2008)
